{"source": "patent US10407441B2", "about": "“Compositions and methods for treating neoplasia, inflammatory disease and other disorders” (Dana-Farber Cancer Institute, Inc., priority 2010, dated 2019)", "key": {"10326 cells": {"test_system": "10326 cells", "test": "Cell proliferation assay, 10326 patient-derived cell line", "type": "cell-based", "conditions": "Homo sapiens, read-out: Cell-assay IC50 10326 cells", "protocol": "Curve fit was calculated by logistical regression (FIG. 56C). […] Curve fit was calculated by logistical regression."}, "797 cells": {"test_system": "797 cells", "test": "Cell proliferation assay, 797 NMC cell line", "type": "cell-based", "conditions": "Homo sapiens, read-out: Cell-assay IC50 797 cells", "protocol": "Curve fit was calculated by logistical regression.\nCells were seeded into white, 384-well microtiter plates (Nunc) at 500 cells per well in a total volume of 50 μL media. […] Compounds were delivered to microtiter assay plates by robotic pin transfer (PerkinElmer JANUS equipped with a V&P Scientific 100 nL pin tool). Following a 48 h incubation at 37° C., cells were lysed and wells were assessed for total ATP content using a commercial proliferation assay (Cell TiterGlo; Promega). Replicate measurements were analyzed with respect to dose and estimates of IC50 were calculated by logistic regression (GraphPad Prism)."}, "BRD4(1)": {"biological_target": "BRD4(1) (Homo sapiens (Human), UniProt O60885)", "test": "Alpha-assay acetyl-histone binding, BRD4 site 1", "procedure": "The binding activity of lead compounds with the BRD4 site 1 was determined by Alpha-assay with a 12-point dose response curve (FIG. 56A).\nAssays were performed as described previously^8 with minor modifications from the manufacturer's protocol (PerkinElmer, USA). All reagents were diluted in 50 mM HEPES, 100 mM NaCl, 0.1% BSA, pH 7.4 supplemented with 0.05% CHAPS and allowed to equilibrate to room temperature prior to addition to plates. […] Plates were sealed and incubated for a further 30 minutes, before the addition of 4 μl of streptavidin-coated donor beads (25 μg/ml) and 4 μl nickel chelate acceptor beads (25 μg/ml) under low light conditions. Plates were foil-sealed to protect from light, incubated at room temperature for 60 minutes and read on a PHERAstar FS plate reader (BMG Labtech, Germany) using an AlphaScreen 680 excitation/570 emission filter set. IC50 values were calculated in Prism 5 (GraphPad Software, USA) after normalization against corresponding DMSO controls and are given as the final concentration of compound in the 20 μl reaction volume."}, "BRD4(2)": {"biological_target": "BRD4(2) (Homo sapiens (Human), UniProt O60885)", "test": "Alpha-assay acetyl-histone binding, BRD4 site 2"}, "NMC 11060 cells": {"test_system": "NMC 11060 cells", "test": "cells", "conditions": "Homo sapiens, NMC 11060, 72 h, read-out: cellular viability IC50", "procedure": "Data is presented as mean±s.d. (n=3). IC50 values were calculated by logistic regression. […] (n=3).\n(§1) In parallel with these studies, a patient with widely metastatic BRD4-NUT positive NMC arising from the mediastinum was identified. With the goal of developing a more clinically-relevant disease model, short-term cultures were established using discarded clinical material obtained from pleural fluid draining from a palliative chest tube in the patient."}, "NMC 797 and Per403 cells": {"test_system": "NMC 797 and Per403 cells", "test": "Differentiation and proliferation immunohistochemistry in NMC cells", "type": "cell-based, human", "conditions": "BRD4-dependent NMC cells"}, "Per403 cells": {"test_system": "Per403 cells", "test": "cells", "conditions": "Homo sapiens, PER-403, 72 h, read-out: Per403 IC50 (inhibition of cell growth)", "procedure": "(§2) Thus, early and late apoptosis was assessed with annexin-V and propidium iodide staining by flow cytometry."}, "GFP-BRD4": {"biological_target": "GFP-BRD4 (Homo sapiens (Human), UniProt O60885)", "test": "FRAP in U2OS cells transfected with GFP-BRD4", "type": "cell-based", "protocol": "(§4) FRAP studies were performed on U2OS cells as previously described^3,20. In brief, U2OS cells were transfected (lipofectamine; Invitrogen) with mammalian overexpression constructs encoding GFP chimera with BRD4, NUT and BRD4-NUT. A 5 μm^2 nuclear region was bleached with high laser intensity in one cell within each field, and measured for recovery with low laser intensity and a 150 μm pinhole. Images of identical fields were acquired using a Nikon C1 Plus confocal microscope equipped with a 37° C. heated chamber and FRAP modules over 90 seconds. Average intensities of the bleached region were measured over time and using MetaMorph v7, and normalized to an independent region of interest before bleaching."}, "NMC 11060 xenografts": {"test_system": "NMC 11060 xenografts", "test": "Patient-derived NMC 11060 primary xenograft, PET imaging", "type": "in vivo, mouse", "conditions": "50 mg kg^-1 daily for four days", "text": "as §1"}, "cellular receptors": {"test_system": "cellular receptors", "test": "Off-target effects on cellular receptors"}, "TT": {"test_system": "TT", "test": "Cell proliferation, TT squamous carcinoma cell line", "type": "cell-based, human", "conditions": "250 nM, 72 hours", "procedure": "(§3) Data is presented as mean±s.d. (n=3). IC50 values were calculated by logistic regression."}, "BRD3-NUT cells": {"test_system": "BRD3-NUT cells", "test": "BRD3-NUT murine xenograft model", "type": "in vivo, mouse", "conditions": "50 mg/kg IP 7 days/week", "text": "Mice were implanted subcutaneously with BRD3-NUT cells. Tumor measurement data were collected weekly. […] On day 24 post-injection, five mice from each group were euthanized and tumor samples were collected to be sent for lab analysis. Throughout the remainder of the study tumor samples were collected as mice were sacrificed. For all samples one half of the tumor was fixed in 10% formalin and the other half was flash frozen on dry ice. Treatment ended on day 32. Tumor volume and weights were collected weekly until all mice either became moribund or tumors reached 2 cm in any dimension. […] Upon cessation of therapy, tumor growth resumed. Tumor volume differences were significant at all points (p=7.65274E-09 at Day 24)."}, "GFP-NUT": {"biological_target": "GFP-NUT (Homo sapiens (Human), UniProt Q86Y26)", "sequence (Q86Y26 whole entry, looked up)": "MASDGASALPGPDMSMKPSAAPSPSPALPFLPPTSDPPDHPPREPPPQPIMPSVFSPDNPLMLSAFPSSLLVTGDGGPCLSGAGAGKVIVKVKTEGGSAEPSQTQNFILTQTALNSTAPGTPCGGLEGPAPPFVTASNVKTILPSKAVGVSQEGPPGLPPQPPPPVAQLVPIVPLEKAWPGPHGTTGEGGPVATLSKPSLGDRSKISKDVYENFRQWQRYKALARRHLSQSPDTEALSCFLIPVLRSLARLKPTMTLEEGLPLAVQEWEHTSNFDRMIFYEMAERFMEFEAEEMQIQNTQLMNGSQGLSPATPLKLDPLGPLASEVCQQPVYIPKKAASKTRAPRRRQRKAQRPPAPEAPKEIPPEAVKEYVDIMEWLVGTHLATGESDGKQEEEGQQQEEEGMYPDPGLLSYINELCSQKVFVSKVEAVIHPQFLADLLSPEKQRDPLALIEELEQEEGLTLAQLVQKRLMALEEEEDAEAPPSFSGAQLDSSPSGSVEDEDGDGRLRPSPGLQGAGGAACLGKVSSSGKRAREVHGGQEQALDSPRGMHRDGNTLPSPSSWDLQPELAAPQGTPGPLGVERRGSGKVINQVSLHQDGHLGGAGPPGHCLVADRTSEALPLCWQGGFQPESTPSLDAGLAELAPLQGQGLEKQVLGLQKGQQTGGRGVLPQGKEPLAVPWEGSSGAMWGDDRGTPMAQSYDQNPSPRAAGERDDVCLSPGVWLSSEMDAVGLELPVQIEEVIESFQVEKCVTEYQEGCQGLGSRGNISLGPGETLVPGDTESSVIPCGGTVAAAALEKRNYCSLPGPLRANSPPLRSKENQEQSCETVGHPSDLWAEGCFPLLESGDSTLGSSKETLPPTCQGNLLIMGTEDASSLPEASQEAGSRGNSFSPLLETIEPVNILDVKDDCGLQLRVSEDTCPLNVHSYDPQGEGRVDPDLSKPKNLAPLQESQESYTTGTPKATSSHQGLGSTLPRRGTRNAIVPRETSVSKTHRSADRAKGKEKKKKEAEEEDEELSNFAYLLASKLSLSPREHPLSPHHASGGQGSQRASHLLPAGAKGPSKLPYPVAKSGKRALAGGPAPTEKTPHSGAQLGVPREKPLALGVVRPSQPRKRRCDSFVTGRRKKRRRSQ", "test": "FRAP in cells transfected with GFP-NUT", "conditions": "500 nM", "protocol": "as §4"}, "GFP-BRD4-NUT": {"biological_target": "GFP-BRD4-NUT (Homo sapiens (Human), UniProt O60885+Q86Y26)", "conditions": "500 nM", "protocol": "as §4"}, "NMC 797 xenografts": {"test_system": "NMC 797 xenografts", "test": "NMC 797 xenograft efficacy study", "type": "in vivo, mouse", "text": "Animals were followed daily for clinical symptoms."}, "TE10 [1]": {"test_system": "TE10", "test": "Differentiation immunohistochemistry in non-BRD4-dependent squamous carcinoma cell line", "protocol": "Media was then removed and chambers were washed with cold PBS. Cells were then fixed in 4% formaldehyde for 20 minutes at 4° C., washed with PBS and transferred to the Dana-Farber/Harvard Cancer Center (DF/HCC) Specialized Histopathology Services Core at Brigham and Women's Hospital for staining, as described below. […] Cells were then trypsinized and cell pellets were formed by centrifugation at 2,000 rpm for 10 minutes, stabilized with ½ volume of HistoGel (Richard-Allen Scientific) and 10% bovine serum albumin. Cell pellets were washed with PBS and fixed in 4% formaldehyde for 20 minutes at 4° C. The cells were then washed with PBS and transferred to the DF/HCC Core Laboratory at the Brigham and Women's Hospital for staining, as described below. […] All fixed material was embedded, sectioned and stained by the DF/HCC Core Laboratory at Brigham and Women's Hospital, using established optimized protocols. Images were obtained using an Olympus BX40 microscope (Olympus Imaging America, Center Valley, Pa.) and a Micropublisher 3.3 RTV color camera (QImaging, Surrey, BC)."}, "TE10 [2]": {"test_system": "TE10", "test": "Cell proliferation, TE10 squamous carcinoma cell line", "type": "cell-based, human", "conditions": "250 nM, 72 hours", "procedure": "as §3"}, "[3]": {"test_system": "BRD4-dependent human carcinoma cells", "test": "Annexin-V / propidium iodide flow cytometry (apoptosis)", "type": "cell-based", "conditions": "500 nM, 24 or 48 hours", "procedure": "as §2\nTrypsinized cells were mixed 1:1 on ice with Annexin-V/propidium iodide buffer (10 mM HEPES pH 7.4, 140 mM NaCl, 2.5 mM CaCl2) containing Annexin V-FITC (BD Pharmingen, 1:500) and propidium iodide (Invitrogen, 1:1000). Samples were immediately analyzed on a BD FACS Canto II. Visualizations and analyses of apoptotic fractions were generated using FlowJo flow cytometry analysis software (Tree Star, Inc.)."}}, "note": "Like-named read-outs stand apart in the source and are kept apart here."}
{"smiles": "Cc1sc2c(c1C)C(c1ccc(Cl)cc1)=N[C@@H](CC(=O)OC(C)(C)C)c1nnc(C)n1-2", "note": "[(S)-JQ1, (S)-tert-Butyl 2-(4-(4-chlorophenyl)-2,3,9-trimethyl-6H-thieno[3,2-f][1,2,4]triazolo[4,3-a][1,4]diazepin-6-yl)acetate]", "values": [{"measurement": "IC50", "setting": "10326 cells; 72 h", "result": 1.5, "unit": "nM"}, {"measurement": "IC50", "setting": "797 cells; 72 h", "result": 0.0056, "unit": "µM"}]}
{"smiles": "Cc1sc2c(c1C)C(c1ccc(Cl)cc1)=NC(CC(=O)NCCN1CCOCC1)c1nnc(C)n1-2", "note": "(stereo not drawn) [JQ33]", "values": [{"measurement": "IC50", "setting": "10326 cells; proliferation after 72 hours", "result": 8, "unit": "nM"}, {"measurement": "IC50", "setting": "797 cells; proliferation after 72 hours", "result": 0.00297, "unit": "µM"}]}
{"smiles": "Cc1sc2c(c1C)C(c1ccc(Cl)cc1)=N[C@@H](CC(=O)N/N=C/c1ncc[nH]1)c1nnc(C)n1-2", "note": "[JQ6]", "values": [{"measurement": "IC50", "setting": "10326 cells; proliferation after 72 hours", "result": 0.051, "unit": "nM"}, {"measurement": "binding activity with the BRD4 site 1", "setting": "BRD4(1)", "result": "excellent binding activity"}, {"measurement": "IC50", "setting": "797 cells; proliferation after 72 hours", "result": 0.001, "unit": "µM"}, {"measurement": "binding activity with the BRD4 site 2", "setting": "BRD4(2)", "result": "excellent binding activity"}]}
{"smiles": "Cc1sc2c(c1C)C(c1ccc(Cl)cc1)=N[C@@H](CC(=O)OC(C)(C)C)c1nnc(C)n1-2", "note": "(single isomer, unassigned) [(+)-JQ1]", "values": [{"measurement": "IC50", "setting": "NMC 11060 cells", "result": 0.004, "unit": "µM"}, {"measurement": "differentiation and growth arrest phenotypes", "setting": "NMC 797 and Per403 cells", "result": "prompted"}, {"measurement": "IC50", "setting": "Per403 cells", "result": 0.06, "unit": "µM"}, {"measurement": "fluorescence recovery of GFP-BRD4", "setting": "GFP-BRD4; 250 nM, 5 h", "result": "enhanced recovery"}, {"measurement": "keratin expression by quantitative IHC", "setting": "NMC 11060 xenografts", "result": "induction of keratin expression"}]}
{"smiles": "Cc1sc2c(c1C)C(c1ccc(Cl)cc1)=N[C@@H](CC(=O)NCCc1cnc[nH]1)c1nnc(C)n1-2", "note": "[JQ8]", "values": [{"measurement": "IC50", "setting": "10326 cells; proliferation after 72 hours", "result": 2.8, "unit": "nM"}, {"measurement": "binding activity with the BRD4 site 1", "setting": "BRD4(1)", "result": "excellent binding activity"}, {"measurement": "IC50", "setting": "797 cells; proliferation after 72 hours", "result": 0.6, "unit": "µM"}, {"measurement": "binding activity with the BRD4 site 2", "setting": "BRD4(2)", "result": "excellent binding activity"}]}
{"smiles": "Cc1sc2c(c1C)C(c1ccc(Cl)cc1)=NC(CC(=O)OC(C)(C)C)c1nnc(C)n1-2", "note": "(racemic) [JQ1, tert-Butyl 2-(4-(4-chlorophenyl)-2,3,9-trimethyl-6H-thieno[3,2-f][1,2,4]triazolo[4,3-a][1,4]diazepin-6-yl)acetate]", "values": [{"measurement": "off-target effects on cellular receptors", "setting": "cellular receptors", "result": "few off-target effects"}, {"measurement": "effects on cell proliferation", "setting": "TT", "result": "Minimal effects"}, {"measurement": "body weight", "setting": "BRD3-NUT cells", "result": "mild weight loss"}, {"measurement": "tumor volume", "setting": "BRD3-NUT cells", "result": "tumor regression"}, {"measurement": "fluorescence recovery of GFP-BRD4", "setting": "GFP-BRD4; 500 nM", "result": "immediate"}, {"measurement": "redistribution of GFP-NUT", "setting": "GFP-NUT", "result": "no effect"}, {"measurement": "time-to-recovery of fluorescence intensity, GFP-BRD4-NUT", "setting": "GFP-BRD4-NUT", "result": "markedly accelerated"}, {"measurement": "tolerability (toxicity, weight loss)", "setting": "NMC 797 xenografts; 50 mg kg^-1 daily IP, 14 days", "result": "well tolerated"}, {"measurement": "tumor growth (tumor volume by caliper)", "setting": "NMC 797 xenografts; 50 mg kg^-1 daily IP, 14 days", "result": "statistically-significant reduction in tumor growth"}, {"measurement": "FDG uptake by PET imaging", "setting": "NMC 797 xenografts; 50 mg kg^-1 daily IP, four days", "result": "marked response on FDG uptake"}, {"measurement": "keratin expression by quantitative IHC", "setting": "NMC 797 xenografts; excised tumor specimens", "result": "strong (3+) keratin expression"}, {"measurement": "differentiation effects", "setting": "TE10 [1]", "result": "fails to exhibit differentiation effects"}, {"measurement": "effects on cell proliferation", "setting": "TE10 [2]", "result": "Minimal effects"}, {"measurement": "apoptosis (annexin-V and propidium iodide staining)", "setting": "[3]", "result": "induced immediate and progressive apoptosis"}]}
{"smiles": "Cc1sc2c(c1C)C(c1ccc(Cl)cc1)=NC(CC(=O)NCCCN1CCN(C)CC1)c1nnc(C)n1-2", "note": "(stereo not drawn) [JQ35]", "values": [{"measurement": "IC50", "setting": "10326 cells; proliferation after 72 hours", "result": 3, "unit": "nM"}, {"measurement": "binding activity with the BRD4 site 1", "setting": "BRD4(1)", "result": "excellent binding activity"}, {"measurement": "IC50", "setting": "797 cells; proliferation after 72 hours", "result": 0.00609, "unit": "µM"}, {"measurement": "binding activity with the BRD4 site 2", "setting": "BRD4(2)", "result": "excellent binding activity"}]}
{"smiles": "Cc1sc2c(c1C)C(c1ccc(Cl)cc1)=N[C@H](CC(=O)OC(C)(C)C)c1nnc(C)n1-2", "note": "[(R)-JQ1]", "values": [{"measurement": "IC50", "setting": "10326 cells; 72 h", "result": 11800, "unit": "nM"}, {"measurement": "IC50", "setting": "797 cells; 72 h", "result": 1540, "unit": "µM"}]}
{"smiles": "Cc1sc2c(c1C)C(c1ccc(Cl)cc1)=N[C@@H](CC(=O)NCCN1CCN(C)CC1)c1nnc(C)n1-2", "note": "[JQ13]", "values": [{"measurement": "binding activity with the BRD4 site 1", "setting": "BRD4(1)", "result": "excellent binding activity"}, {"measurement": "binding activity with the BRD4 site 2", "setting": "BRD4(2)", "result": "excellent binding activity"}]}
